The results in this text go back to US8987526B2, “Partially halogenated, hydroxylated fullerene and allergen adsorbent using the same” (Osaka University, priority 2010, dated 2015).

This experiment addresses T1, cedar pollen allergen (Cry j1) (Cryptomeria japonica, UniProt P18632).
T1 sequence (P18632 22-374): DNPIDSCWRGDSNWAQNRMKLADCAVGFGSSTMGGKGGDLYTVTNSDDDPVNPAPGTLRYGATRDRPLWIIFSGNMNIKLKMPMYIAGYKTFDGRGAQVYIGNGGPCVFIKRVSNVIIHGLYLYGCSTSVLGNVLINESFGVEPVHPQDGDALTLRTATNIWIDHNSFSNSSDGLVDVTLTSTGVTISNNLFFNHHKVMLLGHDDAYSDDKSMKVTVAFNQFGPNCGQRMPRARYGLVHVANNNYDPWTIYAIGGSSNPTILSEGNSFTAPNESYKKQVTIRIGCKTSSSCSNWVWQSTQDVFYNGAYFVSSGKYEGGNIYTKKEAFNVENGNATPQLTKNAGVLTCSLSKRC
The experiment in a line: Function test of the sample to cedar pollen allergen (Cry j1): allergen adsorption, supernatant measured by sandwich ELISA. In kind it is binding. The protocol:
A 1% (by weight/volume) sample solution was prepared from each of the compounds synthesized in Examples 1 to 5, an allergen (Cry j1) dissolved into a phosphate buffer solution was added into the sample solution so as to give 100 ng/mL of the concentration thereof, and then, they were mixed by using a vortex; thereafter, reaction was carried out with shaking the mixture at 4° C. The solution was recovered at the respective predetermined intervals ([…]); and a supernatant thereof after centrifugal separation was analyzed as to the allergen concentration (A) by using a sandwich ELISA method (Enzyme-Linked Immunosorbent Assay). […] Reduction rate (%)=(B−A)/B×100
Specific procedure of the sandwich ELISA method will now be described. Anti-Cry j1 antibody is immobilized in each well of a microplate; and after cleaning it, post coating thereof is conducted. After further cleaning, a sample solution or a standard allergen solution is added thereinto to carry out a primary reaction. After cleaning thereof, an anti-Cry j1 biotin-labeled antibody is added thereinto to carry out a secondary reaction. After further cleaning thereof, an enzyme reagent streptavidin HRP is added thereinto; and after cleaning thereof, an o-phenylenedimaine substrate is added thereinto to carry out a chromogenic reaction. After termination of the reaction by adding dilute sulfuric acid, absorbance at the wavelength of 490 nm is measured by using a microplate reader. From a calibration curve predetermined by using the standard allergen solution, allergen concentration in each sample solution is obtained.

The mark [1] stands for this setting: 1% (w/v) sample solution, 100 ng/mL Cry j1, 4° C., at 5 minutes.

C60(OH)44.8H2O [reference compound] showed an allergen reduction rate (conditions similar to Test Example 1, after 60 minutes) of 6.2%.
As for C60Cl5 (OH)15.5H2O [Example 4], the allergen reduction rate under setting [1] is reported as 90%.
Under setting [1], C60Cl15(OH)15.9H2O [Example 3] came in with an allergen reduction rate of 90%.
